Measurements as given in patent US8003660B2, “Modulators of muscarinic receptors” (Vertex Pharmaceuticals Incorporated, priority 2006, dated 2011).

How the values were obtained:
Format in all cases: cell-based
[1] = biological target: T1, M1 muscarinic receptor (Homo sapiens, UniProt P11229); assay: Functional mobilization of intracellular calcium (FLIPR) in CHO cells expressing M1; conditions: for M1 Activity: CHO cells expressing M1, FLIPR calcium assay; for Emax: CHO, 100% efficacy = maximum response obtained with the Carbachol control
T1 construct: expressed in transfected cells; host or cells: CHO (M1-CHO)
T1 sequence (P11229 1-460): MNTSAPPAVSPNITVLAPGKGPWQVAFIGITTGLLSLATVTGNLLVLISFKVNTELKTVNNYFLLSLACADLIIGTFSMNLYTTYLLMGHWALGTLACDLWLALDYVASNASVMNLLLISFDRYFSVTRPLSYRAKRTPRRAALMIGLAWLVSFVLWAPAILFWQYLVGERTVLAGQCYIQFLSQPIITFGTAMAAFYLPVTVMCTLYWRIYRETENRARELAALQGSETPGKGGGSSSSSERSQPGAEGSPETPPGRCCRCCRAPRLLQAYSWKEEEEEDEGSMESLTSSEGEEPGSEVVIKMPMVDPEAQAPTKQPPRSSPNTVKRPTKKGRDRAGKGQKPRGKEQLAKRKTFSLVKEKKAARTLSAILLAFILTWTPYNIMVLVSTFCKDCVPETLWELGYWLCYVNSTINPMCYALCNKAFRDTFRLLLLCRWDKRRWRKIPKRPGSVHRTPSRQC
Outline: (§1)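 Recombinant CHO cells loaded with Fluo-3 AM or Calcium 3 dye in pH 7.4 buffer containing 1 mM probenecid, with 0.5% final DMSO. For agonism, compound is added directly. For inhibition, it is preincubated 15 min, or co-applied, before carbachol at EC80. FLIPR fluorescence (ex 488, em 540 nm) is recorded for 60 s.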

[2] = biological target: T2, M2 muscarinic receptor (Homo sapiens, UniProt P08172); assay: Functional mobilization of intracellular calcium (FLIPR) in CHO cells expressing M2; conditions: for M2 Activity: CHO cells expressing M2, FLIPR calcium assay; for Emax: CHO, 100% efficacy = maximum response obtained with the Carbachol control
T2 construct: expressed in transfected cells; host or cells: CHO (M2-CHO)
T2 sequence (P08172 1-466): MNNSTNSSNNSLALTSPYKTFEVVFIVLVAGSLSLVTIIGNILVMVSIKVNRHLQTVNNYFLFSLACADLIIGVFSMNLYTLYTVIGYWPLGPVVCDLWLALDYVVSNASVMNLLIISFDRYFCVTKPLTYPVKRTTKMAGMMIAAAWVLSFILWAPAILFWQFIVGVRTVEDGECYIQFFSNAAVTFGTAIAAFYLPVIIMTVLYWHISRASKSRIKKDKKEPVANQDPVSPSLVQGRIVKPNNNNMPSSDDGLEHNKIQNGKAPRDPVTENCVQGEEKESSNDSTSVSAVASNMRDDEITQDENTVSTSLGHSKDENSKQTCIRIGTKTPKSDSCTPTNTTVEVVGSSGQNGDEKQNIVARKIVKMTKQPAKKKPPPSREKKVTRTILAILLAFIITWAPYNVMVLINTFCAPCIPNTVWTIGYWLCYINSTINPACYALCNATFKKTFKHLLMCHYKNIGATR
Outline: as §1

[3] = biological target: T3, M3 muscarinic receptor (Homo sapiens, UniProt P20309); assay: Functional mobilization of intracellular calcium (FLIPR) in CHO cells expressing M3; conditions: for M3 Activity: CHO cells expressing M3, FLIPR calcium assay; for Emax: CHO, 100% efficacy = maximum response obtained with the Carbachol control
T3 construct: expressed in transfected cells; host or cells: CHO (M3-CHO)
Outline: as §1

[4] = biological target: T4, M4 muscarinic receptor (Homo sapiens, UniProt P08173); assay: Functional mobilization of intracellular calcium (FLIPR) in CHO cells expressing M4; conditions: for M4 Activity: CHO cells expressing M4, FLIPR calcium assay; for Emax: CHO, 100% efficacy = maximum response obtained with the Carbachol control
T4 construct: expressed in transfected cells; host or cells: CHO (M4-CHO)
T4 sequence (P08173 1-479): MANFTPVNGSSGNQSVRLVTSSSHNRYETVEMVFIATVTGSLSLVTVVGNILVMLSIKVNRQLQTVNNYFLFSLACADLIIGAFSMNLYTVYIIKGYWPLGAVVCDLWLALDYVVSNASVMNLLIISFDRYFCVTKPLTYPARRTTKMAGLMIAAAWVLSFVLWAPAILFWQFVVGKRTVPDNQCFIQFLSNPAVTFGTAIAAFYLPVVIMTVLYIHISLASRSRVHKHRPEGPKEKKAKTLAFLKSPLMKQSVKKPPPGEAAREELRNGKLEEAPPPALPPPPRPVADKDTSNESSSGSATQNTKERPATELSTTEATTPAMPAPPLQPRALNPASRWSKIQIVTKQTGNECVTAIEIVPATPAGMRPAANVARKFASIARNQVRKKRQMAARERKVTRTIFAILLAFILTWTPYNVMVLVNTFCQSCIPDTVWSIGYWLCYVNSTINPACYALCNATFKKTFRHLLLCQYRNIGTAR
Outline: as §1

T3 sequence (P20309 whole entry): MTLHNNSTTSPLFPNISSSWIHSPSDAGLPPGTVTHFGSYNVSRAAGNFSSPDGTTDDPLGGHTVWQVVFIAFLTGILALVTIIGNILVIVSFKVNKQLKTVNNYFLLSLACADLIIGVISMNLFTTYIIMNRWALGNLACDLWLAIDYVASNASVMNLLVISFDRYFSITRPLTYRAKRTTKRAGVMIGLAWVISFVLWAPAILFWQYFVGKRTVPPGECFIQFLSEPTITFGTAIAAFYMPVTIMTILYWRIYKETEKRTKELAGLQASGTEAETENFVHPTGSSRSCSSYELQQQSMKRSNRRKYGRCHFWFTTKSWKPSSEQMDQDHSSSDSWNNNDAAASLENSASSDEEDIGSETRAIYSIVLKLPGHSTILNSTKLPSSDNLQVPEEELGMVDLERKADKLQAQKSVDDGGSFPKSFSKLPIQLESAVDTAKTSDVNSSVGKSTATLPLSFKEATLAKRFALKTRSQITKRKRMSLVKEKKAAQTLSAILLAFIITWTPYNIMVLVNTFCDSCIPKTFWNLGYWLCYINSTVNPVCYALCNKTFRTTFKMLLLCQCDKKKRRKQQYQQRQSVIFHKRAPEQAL

SMILES	M1 Activity [1]	Emax [1] [%]	M2 Activity [2]	Emax [2] [%]	M3 Activity [3]	Emax [3] [%]	M4 Activity [4]	Emax [4] [%]
CC(=O)N[C@H]1CC2(CCN(CC(N)=O)CC2)c2ccccc21 [compound 229]	+ (activity was measured to be greater than 5.0 μM)	< 25	+ (activity was measured to be greater than 5.0 μM)	< 25	+ (activity was measured to be greater than 5.0 μM)	< 25	+ (activity was measured to be greater than 5.0 μM)	< 25
CCC(=O)N[C@H]1CC2(CCN(CCC(C)(C)C)CC2)c2ccccc21 [compound 230]		25 to 100		< 25		< 25		25 to 100
CCC(=O)N[C@H]1CC2(CCN(CCC(C)C)CC2)c2ccccc21 [compound 231]	+ (activity was measured to be greater than 5.0 μM)	< 25	+ (activity was measured to be greater than 5.0 μM)	< 25	+ (activity was measured to be greater than 5.0 μM)	< 25	+++ (activity was measured to be less than 2.0 μM)	< 25
CN1CCC2(CCCc3ccccc32)CC1 [compound 232]	+ (activity was measured to be greater than 5.0 μM)	< 25	+ (activity was measured to be greater than 5.0 μM)	< 25	+ (activity was measured to be greater than 5.0 μM)	< 25	+ (activity was measured to be greater than 5.0 μM)	< 25
COC(=O)CN1CCC2(CC1)C[C@H](NC(C)=O)c1ccccc12 [compound 233]	+ (activity was measured to be greater than 5.0 μM)	25 to 100	+ (activity was measured to be greater than 5.0 μM)	< 25	+ (activity was measured to be greater than 5.0 μM)	< 25	+ (activity was measured to be greater than 5.0 μM)	< 25
CCOc1ccc(CN2CCC3(CC[C@H](NC(C)=O)c4ccccc43)CC2)cc1 [compound 234]	++ (activity was measured to be from 2.0 μM to 5.0 μM)	25 to 100	+ (activity was measured to be greater than 5.0 μM)	< 25	+ (activity was measured to be greater than 5.0 μM)	< 25	++ (activity was measured to be from 2.0 μM to 5.0 μM)	25 to 100
CC(=O)N[C@H]1CC2(CCN(CC(=O)NCC(C)C)CC2)c2ccccc21 [compound 235]	+ (activity was measured to be greater than 5.0 μM)	< 25	+ (activity was measured to be greater than 5.0 μM)	< 25	+ (activity was measured to be greater than 5.0 μM)	< 25	+ (activity was measured to be greater than 5.0 μM)	< 25
CC(=O)N[C@H]1CC2(CCN(C(C)CC(C)C)CC2)c2ccccc21 (stereo partly drawn) [compound 236]	+ (activity was measured to be greater than 5.0 μM)	< 25	+ (activity was measured to be greater than 5.0 μM)	< 25	+ (activity was measured to be greater than 5.0 μM)	< 25	+ (activity was measured to be greater than 5.0 μM)	< 25
